Measured values as given in patent US20200016159A1, “N3-CYCLICALLY SUBSTITUTED THIENOURACILS AND USE THEREOF” (Bayer Aktiengesellschaft, priority 2016, published 2020).
pIC50: −log10 of the molar value.

Target: T1, human adenosine A2b receptor (Homo sapiens, UniProt P29275)
T1 sequence (P29275 1-332): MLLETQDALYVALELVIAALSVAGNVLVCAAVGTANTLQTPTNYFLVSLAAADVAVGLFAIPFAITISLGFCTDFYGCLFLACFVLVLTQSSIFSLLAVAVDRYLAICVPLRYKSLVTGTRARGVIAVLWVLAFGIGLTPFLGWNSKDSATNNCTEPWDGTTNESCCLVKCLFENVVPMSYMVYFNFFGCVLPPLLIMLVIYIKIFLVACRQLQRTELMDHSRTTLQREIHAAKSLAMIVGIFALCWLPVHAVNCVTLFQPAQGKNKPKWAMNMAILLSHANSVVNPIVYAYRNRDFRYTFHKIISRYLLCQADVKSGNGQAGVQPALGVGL
Test: Cellular in vitro reporter gene test for A2b receptor activity (antagonism of NECA)
Type: cell-based
Parameters: expressed in transfected cells; host or cells: CHO-K1 (Chinese hamster ovary) with CRE-luciferase reporter
Settings: recombinant CHO-K1 cells, CRE-luciferase reporter, co-incubation with EC50 concentration of NECA, 3 hours
Experimental: The identification of selective antagonists of the human adenosine A2b receptor and the quantification of the efficacy and selectivity of the compounds according to the invention was carried out with the aid of recombinant cell lines for the human adenosine receptors A1, A2a, A2b and A3. These cell lines were originally derived from an ovarepithelial cell of the hamster (Chinese Hamster Ovary, CHO-K1, American Type Culture Collection, Manassas, Va. 20108, USA). In addition to the respective recombinantly expressed adenosine receptor for testing the efficacy at the A1, A2a and A2b receptors, the cell lines contain a reporter gene construct where expression of the firefly (Photinus pyralis) luciferase is under the control of a promoter which can be activated via intracellular signal cascades by stimulation of the receptors with the (not subtype-selective) adenosine receptor agonist NECA (5′-N-ethylcarboxamidoadenosine) [S. J. Hill, J. G. Baker, S. Rhees, Curr. Opin. Pharmacol. 1, 526-532 (2001)].
In the case of the A2a and A2b cell lines, this is a minimal promoter having a plurality of cAMP-responsive elements (CRE). Stimulation of the Gs-coupled A2b or A2a receptors by NECA ultimately leads, via formation of cAMP, to CRE-dependent induction of luciferase expression, which is detected 3 hours after the start of the incubation with NECA using a detection solution in a suitable luminometer. For testing the antagonists, initially, in a pre-experiment, the concentration of NECA which, at the test day in question, results in half-maximum stimulation of luciferase expression (EC50 concentration) is determined. By joint incubation of this EC50 concentration of NECA with the substances to be tested, it is possible to determine their antagonistic activity.
Table 1 below lists the IC50 values from the A2b receptor assay for individual working examples (in some cases as means of a plurality of independent individual determinations and rounded to two significant figures; it may also be the case here that various independent preparations of the respective working example have been used): […]

Row | SMILES | pIC50
1 | Cc1c(Cn2cc[nH]c2=O)sc2c1c(=O)n(C1CC1C)c(=O)n2CCOC(F)(F)F (racemic) [Example 270, 5-Methyl-3-(2-methylcyclopropyl)-6-[(2-oxo-2,3-dihydro-1H-imidazol-1-yl)methyl]-1-[2-(trifluoromethoxy)ethyl]thieno[2,3-d]pyrimidine-2,4(1H,3H)-dione] | 8.82
2 | Cc1c(Cn2[nH]ccc2=O)sc2c1c(=O)n(C1CC1C)c(=O)n2CCOC(F)(F)F (racemic) [Example 273, 5-Methyl-3-(2-methylcyclopropyl)-6-[(5-oxo-2,5-dihydro-1H-pyrazol-1-yl)methyl]-1-[2-(trifluoromethoxy)ethyl]thieno[2,3-d]pyrimidine-2,4(1H,3H)-dione] | 7.17
3 | Cc1c(Cn2nc[nH]c2=O)sc2c1c(=O)n(C1CC1C)c(=O)n2CCOC(F)(F)F (racemic) [Example 276, 5-Methyl-3-(2-methylcyclopropyl)-6-[(5-oxo-4,5-dihydro-1H-1,2,4-triazol-1-yl)methyl]-1-[2-(trifluoromethoxy)ethyl]thieno[2,3-d]pyrimidine-2,4(1H,3H)-dione] | 8.70
4 | COCCn1c(=O)n(C2CC2C(F)(F)F)c(=O)c2c(C)c(Cn3nc[nH]c3=O)sc21 (racemic) [Example 297, 1-(2-Methoxyethyl)-5-methyl-6-[(5-oxo-4,5-dihydro-1H-1,2,4-triazol-1-yl)methyl]-3-[2-(trifluoromethyl)cyclopropyl]thieno[2,3-d]pyrimidine-2,4(1H,3H)-dione] | 6.92
5 | CCC1CC1n1c(=O)c2c(C)c(Cn3nc[nH]c3=O)sc2n(CCOC)c1=O (racemic) [Example 303] | 7.15
6 | COCCn1c(=O)n(C2CC2OC)c(=O)c2c(C)c(Cn3nc[nH]c3=O)sc21 (racemic) [Example 309, 3-(2-Methoxycyclopropyl)-1-(2-methoxyethyl)-5-methyl-6-[(5-oxo-4,5-dihydro-1H-1,2,4-triazol-1-yl)methyl]thieno[2,3-d]pyrimidine-2,4(1H,3H)-dione] | 6.96
7 | COC(=O)N=C1NCCN1Cc1sc2c(c1C)c(=O)n(C1CC1)c(=O)n2CC1CCCO1 (single isomer, unassigned) [Example 43, Methyl [1-{[3-cyclopropyl-5-methyl-2,4-dioxo-1-(tetrahydrofuran-2-ylmethyl)-1,2,3,4-tetrahydrothieno[2,3-d]pyrimidin-6-yl]methyl}imidazolidin-2-ylidene]carbamate] | 7.92
8 | COC(=O)N=C1NCCN1Cc1sc2c(c1C)c(=O)n(C1CC1)c(=O)n2CC1CCCO1 (single isomer, unassigned) [Example 44, Methyl [1-{[3-cyclopropyl-5-methyl-2,4-dioxo-1-(tetrahydrofuran-2-ylmethyl)-1,2,3,4-tetrahydrothieno[2,3-d]pyrimidin-6-yl]methyl}imidazolidin-2-ylidene]carbamate] | 7.80
9 | Cc1c(Cn2cc[nH]c2=O)sc2c1c(=O)n(C1CC1)c(=O)n2CC1CCCO1 (single isomer, unassigned) [Example 47, 3-Cyclopropyl-5-methyl-6-[(2-oxo-2,3-dihydro-H-imidazol-1-yl)methyl]-1-(tetrahydrofuran-2-ylmethyl)thieno[2,3-d]pyrimidine-2,4(1H,3H)-dione] | 6.85
10 | Cc1c(Cn2cc[nH]c2=O)sc2c1c(=O)n(C1CC1)c(=O)n2CC1CCCO1 (single isomer, unassigned) [Example 48, 3-Cyclopropyl-5-methyl-6-[(2-oxo-2,3-dihydro-H-imidazol-1-yl)methyl]-1-(tetrahydrofuran-2-ylmethyl)thieno[2,3-d]pyrimidine-2,4(1H,3H)-dione] | 7.25
11 | Cc1c(CN2CCNC2=O)sc2c1c(=O)n(C1(C)CC1)c(=O)n2CC1CC1(F)F (single isomer, unassigned) [Example 64, 1-[(2,2-Difluorocyclopropyl)methyl]-5-methyl-3-(1-methylcyclopropyl)-6-[(2-oxoimidazolidin-1-yl)methyl]thieno[2,3-d]pyrimidine-2,4(1H,3H)-dione] | 7.89
12 | Cc1c(CN2CCNC2=O)sc2c1c(=O)n(C1(C)CC1)c(=O)n2CC1CC1(F)F (single isomer, unassigned) [Example 65, 1-[(2,2-Difluorocyclopropyl)methyl]-5-methyl-3-(1-methylcyclopropyl)-6-[(2-oxoimidazolidin-1-yl)methyl]thieno[2,3-d]pyrimidine-2,4(1H,3H)-dione] | 7.44

Continued, values first:

Row | pIC50 | SMILES
13 | 8.68 | Cc1c(CN2CCNC2=O)sc2c1c(=O)n(C1CC1C)c(=O)n2CCCC(F)(F)F (racemic) [Example 242, 5-Methyl-3-(2-methylcyclopropyl)-6-[(2-oxoimidazolidin-1-yl)methyl]-1-(4,4,4-trifluorobutyl)thieno[2,3-d]pyrimidine-2,4(1H,3H)-dione]
14 | 8.17 | Cc1c(CN2CCNC2=O)sc2c1c(=O)n(C1CC1C)c(=O)n2CCC(F)(F)C(F)F (racemic) [Example 245, 5-Methyl-3-(2-methylcyclopropyl)-6-[(2-oxoimidazolidin-1-yl)methyl]-1-(3,3,4,4-tetrafluorobutyl)thieno[2,3-d]pyrimidine-2,4(1H,3H)-dione]
15 | 8.85 | Cc1c(CN2CCNC2=O)sc2c1c(=O)n(C1CC1C)c(=O)n2CC1CC(F)(F)C1 (racemic) [Example 252, 1-[(3,3-Difluorocyclobutyl)methyl]-5-methyl-3-(2-methylcyclopropyl)-6-[(2-oxoimidazolidin-1-yl)methyl]thieno[2,3-d]pyrimidine-2,4(1H,3H)-dione]
16 | 8.19 | COCCn1c(=O)n(C2CC2C)c(=O)c2c(C)c(CN3CCNC3=O)sc21 (racemic) [Example 258, 1-(2-Methoxyethyl)-5-methyl-3-(2-methylcyclopropyl)-6-[(2-oxoimidazolidin-1-yl)methyl]thieno[2,3-d]pyrimidine-2,4(1H,3H)-dione]
17 | 7.82 | Cc1c(CN2CCNC2=O)sc2c1c(=O)n(C1CC1C)c(=O)n2CCOC(F)(F)F (racemic) [Example 261, 5-Methyl-3-(2-methylcyclopropyl)-6-[(2-oxoimidazolidin-1-yl)methyl]-1-[2-(trifluoromethoxy)ethyl]thieno[2,3-d]pyrimidine-2,4(1H,3H)-dione]
18 | 7.80 | Cc1c(CN2CCNC2=NC#N)sc2c1c(=O)n(C1CC1C)c(=O)n2CCOC(F)(F)F (racemic) [Example 264, [1-({5-Methyl-3-(2-methylcyclopropyl)-2,4-dioxo-1-[2-(trifluoromethoxy)ethyl]-1,2,3,4-tetrahydrothieno[2,3-d]pyrimidin-6-yl}methyl)imidazolidin-2-ylidene]cyanamide]
19 | 8.62 | COC(=O)N=C1NCCN1Cc1sc2c(c1C)c(=O)n(C1CC1C)c(=O)n2CCOC(F)(F)F (racemic) [Example 267, Methyl [1-({5-methyl-3-(2-methylcyclopropyl)-2,4-dioxo-1-[2-(trifluoromethoxy)ethyl]-1,2,3,4-tetrahydrothieno[2,3-d]pyrimidin-6-yl}methyl)imidazolidin-2-ylidene]carbamate]
20 | 8.80 | Cc1c(CN2CCNC2=O)sc2c1c(=O)n(C1CC1C)c(=O)n2CCSC(F)(F)F (racemic) [Example 279, 5-Methyl-3-(2-methylcyclopropyl)-6-[(2-oxoimidazolidin-1-yl)methyl]-1-{2-[(trifluoromethyl)sulfanyl]ethyl}thieno[2,3-d]pyrimidine-2,4(1H,3H)-dione]
21 | 7.70 | COCCn1c(=O)n(C2CC2C(F)(F)F)c(=O)c2c(C)c(CN3CCNC3=O)sc21 (racemic) [Example 294, 1-(2-Methoxyethyl)-5-methyl-6-[(2-oxoimidazolidin-1-yl)methyl]-3-[2-(trifluoromethyl)cyclopropyl]thieno[2,3-d]pyrimidine-2,4(1H,3H)-dione]
22 | 7.89 | CCC1CC1n1c(=O)c2c(C)c(CN3CCNC3=O)sc2n(CCOC)c1=O (racemic) [Example 300, 3-(2-Ethylcyclopropyl)-1-(2-methoxyethyl)-5-methyl-6-[(2-oxoimidazolidin-1-yl)methyl]thieno[2,3-d]pyrimidine-2,4(1H,3H)-dione]
23 | 7.80 | COCCn1c(=O)n(C2CC2OC)c(=O)c2c(C)c(CN3CCNC3=O)sc21 (racemic) [Example 306, 3-(2-Methoxycyclopropyl)-1-(2-methoxyethyl)-5-methyl-6-[(2-oxoimidazolidin-1-yl)methyl]thieno[2,3-d]pyrimidine-2,4(1H,3H)-dione]
